# Measurements taken from article PMC6934184, “Selective DNA-PKcs inhibition extends the therapeutic index of localized radiotherapy and chemotherapy” (The Journal of Clinical Investigation, 2019).
# Biological target: T1, CSNK1A1 (CK1 alpha 1) (Homo sapiens, UniProt P48729)
# T1 construct: purchased Thermo Fisher Scientific (Life Technologies) SelectScreen
# Assay: SelectScreen Z'LYTE
# Type: biochemical
# Method in brief: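 Percent values come from Thermo SelectScreen profiling of NU5455, combining activity and binding assays. CSF1R was run in Z'LYTE format at Km app ATP, and CAMK1 in Adapta format with ATP listed at 10.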
# T1 sequence (P48729 whole entry): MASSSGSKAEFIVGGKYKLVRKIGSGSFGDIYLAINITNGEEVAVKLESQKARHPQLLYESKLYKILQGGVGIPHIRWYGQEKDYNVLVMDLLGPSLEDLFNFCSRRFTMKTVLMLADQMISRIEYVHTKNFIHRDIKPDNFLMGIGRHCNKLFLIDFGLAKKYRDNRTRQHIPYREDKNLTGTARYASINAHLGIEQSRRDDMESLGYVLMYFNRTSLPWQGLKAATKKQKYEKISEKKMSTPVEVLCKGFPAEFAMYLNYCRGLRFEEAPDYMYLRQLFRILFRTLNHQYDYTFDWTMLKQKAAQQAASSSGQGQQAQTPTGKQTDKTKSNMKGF
compound,measurement,value
CN(C(=O)CN1CCOCC1)c1ccc2sc3c(-c4cccc5c(=O)cc(N6CC7CCC(C6)O7)oc45)cccc3c2c1 [NU5455],inhibition at 1 µM,0.3%
